No end group written: not given here.

The results in this text go back to patent US5776892A, “Anti-inflammatory peptides” (Curative Health Services, Inc., priority 1994, dated 1998).

The subject of data set [1] is DNCB-induced delayed-type hypersensitivity. As to the kind of experiment: Delayed-type hypersensitivity to DNCB, ear thickness. Type of data set: in vivo, mouse. The procedure: CT-112 (SEQ. ID NO: 1) was tested for its ability to modulate the immune response in a mouse model of delayed hypersensitivity (Filipp et al., 1984, Allergy, 39: 499-507; Diezel et al., 1989 J. Invest. Dermatol. 93:322-326). The mice used in this study were 8-wk old hairless females (Jackson Laboratories). The mice were sensitized to a contact allergen (1-chloro-2,4-dinitrobenzene, DNCB) by painting the dorsothoracic region twice daily for 5 consecutive days with 50 μl of 0.5% DNCB in 75% acetone:25% vegetable oil. The animals were allowed to rest for 24 hr prior to challenge with DNCB. On the sixth day after initiation of the sensitization treatments, the animals were challenged with 50 μl of DNCB solution applied to the left ear. After 24 hrs, the ear thickness was determined and compared to the unchallenged ear.
The treatment groups were as follows:
b) Prednisone (intraperitoneal injection of 25 mg/kg, 2 hr prior to challenge);
d) CT-112 (intraperitoneal injections of 60 mg/kg/injection at 3, 1, and 0.25 hr prior to challenge and 3, 6 and 21 hr post-challenge);
e) DMSO control (topical application of 50 μl at 3, 1 and 0.25 hr prior to challenge; and
f) CT-112 in DMSO (20 mg/ml, topical application of 50 μl at 3, 1, and 0.25 hr prior to challenge and 3, 6 and 21 hr post-challenge).

A short description of the next data set: Acute toxicity in rats. The data set is classed as in vivo, rat. The following applies: rats, 100, 500 or 1,000 mg/kg. On the procedure:
Rats were dosed with CT-112 (SEQ. ID NO: 1) at 100, 500 or 1,000 mg/kg. […] All rats returned to normal appearance the day after treatment.

Data set [2] concerns carrageenan-induced peritonitis. The data set can be described thus: Carrageenan-induced peritonitis, LTB4 and PGE2 in peritoneal lavage fluid. Type of data set: in vivo, mouse. The following applies: 60 mg/kg/day; 24 hr post-challenge. On the procedure: Mice (C57BL/6UAF, females, 12 weeks old) were implanted with Alzet mini pumps set to deliver 60 mg CT-112/kg/day. Six days post-implantation, the mice were challenged with an intraperitoneal injection of 0.3 ml of carrageenan in PBS (10 mg/ml). The peritoneal cavity was lavaged with 15 ml of Hank's Balanced Salt Solution (Ca^2+ - and Mg^2+ -free) at 24, 48 and 72 hr post-challenge. The lavage fluid was centrifuged (500 g, 5 min), fixed with LeukoStat fixative and stained with LeukoStat staining solution. The slides were analyzed under a microscope for the different types of inflammatory cells, such as macrophages, lymphocytes and neutrophils. At the 48-hr time point, 5 control mice were also lavaged. In a separate study, the peritoneal lavage fluid was analyzed for total leukotriene B4 (LTB4) and prostaglandin E2 (PGE2) content at 24 hr post-challenge (Griswold et al., 1991, Biochem. Pharmacol. 42(4):825-831).

Setting [3] is: ip 60 mg/kg/injection at 3, 1, 0.25 hr prior and 3, 6, 21 hr post-challenge.
The mark [4] stands for this setting: topical 50 μl of 20 mg/ml in DMSO at 3, 1, 0.25 hr prior and 3, 6, 21 hr post-challenge.

Regarding “TTSQVRPR [CT-112, octapeptide derived from platelet factor 4]”, in data set [1] (7-day pump, 60 mg/kg/24 hr), the “% Inhibition of Inflammation” value stood at 79.7% and the “Thickness Difference (Left-Right)” value came out at 0.00087 ± 0.000398 in. In data set [1] (setting [3]), the “% Inhibition of Inflammation” value was determined as 68.4% and the “Thickness Difference (Left-Right)” value is recorded as 0.00169 ± 0.000643 in. Moreover, in data set [1] (setting [4]), the “% Inhibition of Inflammation” value was found to be 18.2% and the “Thickness Difference (Left-Right)” value came to 0.0035 ± 0.000408 in. Moreover, in “Acute toxicity in rats”, the lesions at necropsy entry is recorded as “No lesions were visible at necropsy”; the “mean body weight and mean body weight gain vs control” value is “no statistical differences”. In addition, in the data set “Acute toxicity in rats” (several rats at 500 and 1,000 mg/kg, day of treatment), the clinical effects result is “Transient clinical effects (hypoactivity, hypersensitiviy, staggered gait, cyanosis and absence of righting reflex)”. Besides, in data set [2], the “LTB4 (pg in peritoneal lavage)” value is given as 16.8 ± 11.5 pg and the “PGE2 (pg in peritoneal lavage)” value came to 13.1 ± 6.9 pg.
